The source of these data is patent US10898502B2, “Treatment of diseases using a combination of ultraviolet blood irradiation and antibiotics” (priority 2014, dated 2021).

Data set [1] in a line: Adverse reactions seen in the treated patients. As to conditions: Example 2 patient; medication discontinued.
The conditions of data set [2]: human, in vivo.
Data set [3] concerns MAP. The following applies: cited from earlier work.
Data set [4] concerns M. tuberculosis. The following applies: cited from earlier work.
The subject of data set [5] is cathelicidin. As to conditions: cited from earlier work.

For `NCC1(CC(=O)O)CCCCC1` [Gabapentin], the “Tolerability at the lowest recommended dose” value in data set [1] is recorded as “very dizzy”.

Turning to `Cn1cnc([N+](=O)[O-])c1Sc1ncnc2nc[nH]c12` [azathioprine], the “Liver enzymes leading to discontinuation” value in data set [2] was “elevated ALT and AST”.

For the compound Vitamin A, the “Growth of MAP in vitro” value in data set [3] is recorded as “inhibit the growth of MAP”.

Vitamin D: in data set [4], the “Proliferation of M. tuberculosis in macrophages” value was “reduce the proliferation”. The “Intracellular production of cathelicidin” value in data set [5] is on record as “induces”. Moreover, the “Growth of MAP in vitro” value in data set [3] is given as “inhibit the growth of MAP”.
